From patent US4464389A, “Esters of retinoic acid and pentaerythritol and monobenzal acetals thereof” (SRI International, priority 1982, dated 1984)

Experiments:
[1] = system: Hamster Tracheal Organ Culture (keratinization); assay: Reversal of keratinization in hamster tracheal organ culture; format: cell-based
Procedure: (§1) The ODC assay measures a compound's effect on the prevention of the induction of ODC. The tracheal organ culture assay measures a compound's ability to reverse keratinization.
The tracheal organ culture assay is carried out as follows. Tracheas are taken from hamsters that are in very early stages of vitamin A deficiency and placed in organ culture. At the time of culture, the animals are still gaining weight; the tracheal epithelium is generally low columnar or cuboidal, with only occasional patches of squamous metaplasia. Each trachea is opened from the larynx to the carina along the membranous dorsal wall and cultured in a serum-free medium (CMRL-1066; with crystalline bovine insulin, 0.1 μg/ml; hydrocortisone hemisuccinate, 0.1 μg/ml; glutamine, 2 mM; penicillin, 100 units/ml; and streptomycin,100 μg/ml, added). Cultures are gassed with 50% oxygen, 45% nitrogen, and 5% CO2. The culture dishes are rocked at 35.5-36.0 degrees to allow the tracheas contact with both gas and medium. All tracheas are grown in medium containing no retinoid for the first 3 days. At the end of 3 days, some tracheas are harvested; almost all of these tracheas have significant squamous metaplasia, and approximately 60% have keratinized lesions. The remaining tracheas are then divided into different groups which are treated with either: (1) retinoid dissolved in dimethylsulfoxide (final concentration of DMSO in culture medium is never greater than 0.1%) or (2) an equivalent amount of DMSO alone. Culture medium is changed three times a week, and all of the remaining tracheas are harvested at the end of 10 days in culture. Tracheas are fixed in 10% buffered formalin and embedded in paraffin. Cross sections of five micrometers are made through the mid-portion, stained with hematoxylin and eosin, and then scored with a microscope for the presence of keratin and keratohyaline granules, both of which are found in approximately 90% of control cultures that receive no retinoid for the entire 10 day culture period.

[2] = system: Ornithine Decarboxylase; assay: Inhibition of induction of ornithine decarboxylase (ODC) by 12-O-tetradecanoylphorbol-13-acetate in mouse skin; format: in vivo; settings: topical, 1 hour before TPA (17 nmol)
Procedure: as §1
The ODC assay is carried out as follows. Female Charles River CD-1 mice from Charles River Breeding Laboratories, Wilmington, Mass., are used (age 7 to 9 weeks). The dorsal hair of the mice is shaved 1 to 2 days before testing, and only mice showing no hair regrowth are used. A single dose of 12-O-tetradecanoylphorbol-13-acetate (TPA) (10.5 μg, 17 nmol) in 0.2 mL of acetone is applied topically to the back of each mouse. The test compound, at one of three dose levels (1.7, 17, and 170 nmol), dissolved in 0.2 mL of acetone is applied 1 hour before the TPA treatment to the test groups; the control group is treated with acetone alone. The mice are killed by cervical dislocation five hours after TPA treatment. Determinations are done in triplicate.
The epidermis is obtained from the sacrificed animals. To obtain sufficient material, the dorsal skins from 2 to 3 mice in each treatment group are pooled. The depilatory agent Nudit® (Helena Rubinstein, New York) is applied to the shaved area of the skin; after 5 minutes, it is washed off thoroughly with cold tap water. Then the skin is excised and plunged immediately into ice-cold water; it is then placed in a 55° C. water bath for 30 seconds and reimmersed in ice-cold water for at least another 30 seconds. The skin is placed epidermis side up on a cold plate, and the epidermis is scraped off with a razor blade. The pooled epidermal sheets are homogenized (Polytron PT-10 homogenizer) at 0° to 4° C. for 15-20 seconds in 50 mM sodium phosphate buffer (pH 7.2) containing 0.1 mM pyridoxal phosphate and 0.1 mM ethylenediaminetetraacetic acid (EDTA), at a volume of 1 mL/skin.
The supernatant fraction remaining after centrifugation of the homogenate at 10,000×g for 30 seconds at 0° C. is used for the enzyme assay. Enzyme activity is determined using the microassay for ODC as described by Verma and Boutwell to measure the release of ^14 CO2 from DL-[1-^14 C]-ornithine (58 mCi/mmol) after incubation with the 10,000×g supernatant. The incubations are carried out by decanting, with a Pasteur pipette, 100 μL of the supernatant containing 100 to 120 μg of protein into two or three 15-mL Corex tubes in a shaking water bath at 37° C. The assay mixture in the tubes consists of 50 μL of 100 mM sodium phosphate buffer (pH 7.2), 10 μL of 4 mM pyridoxal phosphate, 40 μL of 25 mM dithiothreitol, and 1 μL of 0.1M EDTA. The center wells in the tubes are filled with 200 μL of a 2:1 solution (v/v) of ethanolamine:2-methoxyethanol. The reaction is started by adding 50 μL of substrate (0.5 μCi of DL-[1-^14 C]-ornithine in 2 mM cold ornithine) at 1-minute intervals by injection to each of the stoppered tubes. Incubations are routinely carried out at 37° C. for 30 to 60 minutes. The reaction is stopped by addition of 0.5 ml of 2M citric acid, and incubation is continued for an additional hour without heating to ensure complete absorption of ^14 CO2.
Radioactivity is measured using a toluene-based scintillant (4 g of PPO and 50 mg of POPOP/L of toluene) in a Beckman LS-250 liquid scintillation counter. Enzyme activity is determined in triplicate and expressed as nanomoles of CO2 released in 30 minutes per milligram of protein. Enzyme activity is linear for the protein concentration used. The protein concentrations of the epidermal extracts are determined by the Lowry procedure, using bovine serum albumin as the standard.

Structure (SMILES): CC1=C(/C=C/C(C)=C/C=C/C(C)=C/C(=O)OC[C@]2(CO)CO[C@@H](c3ccccc3)OC2)C(C)(C)CCC1 [Example 1 (Isomer (2)), (E)-2α-Phenyl-5α-hydroxymethyl-5β-retinoyloxymethyl-1,3-dioxane]
- Reversal of Keratinization, Active/Total Cultures ([1]; Conc 10^-8 M): 13/13
- Reversal of Keratinization, Active/Total Cultures (%) ([1]; Conc 10^-8 M): 100%
- Reversal of Keratinization, Active/Total Cultures ([1]; Conc 10^-9 M): 17/18
- Reversal of Keratinization, Active/Total Cultures (%) ([1]; Conc 10^-9 M): 94%
- Reversal of Keratinization, Active/Total Cultures ([1]; Conc 10^-10 M): 9/18
- Reversal of Keratinization, Active/Total Cultures (%) ([1]; Conc 10^-10 M): 50%
- Reversal of Keratinization, Active/Total Cultures ([1]; Conc 10^-11 M): 2/6
- Reversal of Keratinization, Active/Total Cultures (%) ([1]; Conc 10^-11 M): 33%
- Inhibition of Induction of Ornithine Decarboxylase by TPA, % Inhibition of Control ([2]; Dose 1.7 nmol): 40%
- Inhibition of Induction of Ornithine Decarboxylase by TPA, % Inhibition of Control ([2]; Dose 17 nmol): 49%

Structure (SMILES): CC1=C(/C=C/C(C)=C/C=C/C(C)=C/C(=O)OC[C@]2(CO)CO[C@H](c3ccccc3)OC2)C(C)(C)CCC1 [Example 1 (Isomer (3)), (E)-2α-Phenyl-5β-hydroxymethyl-5α-retinoyloxymethyl-1,3-dioxane]
- Reversal of Keratinization, Active/Total Cultures ([1]; Conc 10^-8 M): 13/13
- Reversal of Keratinization, Active/Total Cultures (%) ([1]; Conc 10^-8 M): 100%
- Reversal of Keratinization, Active/Total Cultures ([1]; Conc 10^-9 M): 18/18
- Reversal of Keratinization, Active/Total Cultures (%) ([1]; Conc 10^-9 M): 100%
- Reversal of Keratinization, Active/Total Cultures ([1]; Conc 10^-10 M): 7/19
- Reversal of Keratinization, Active/Total Cultures (%) ([1]; Conc 10^-10 M): 37%
- Reversal of Keratinization, Active/Total Cultures ([1]; Conc 10^-11 M): 2/6
- Reversal of Keratinization, Active/Total Cultures (%) ([1]; Conc 10^-11 M): 33%
- Inhibition of Induction of Ornithine Decarboxylase by TPA, % Inhibition of Control ([2]; Dose 1.7 nmol): 47%
- Inhibition of Induction of Ornithine Decarboxylase by TPA, % Inhibition of Control ([2]; Dose 17 nmol): 57%

Structure (SMILES): CC1=C(/C=C/C(C)=C/C=C/C(C)=C/C(=O)OCC(CO)(CO)CO)C(C)(C)CCC1 [Example 2, Pentaerythritol Monoretinoate]
- Reversal of Keratinization, Active/Total Cultures ([1]; Conc 10^-8 M): 13/13
- Reversal of Keratinization, Active/Total Cultures (%) ([1]; Conc 10^-8 M): 100%
- Reversal of Keratinization, Active/Total Cultures ([1]; Conc 10^-9 M): 15/15
- Reversal of Keratinization, Active/Total Cultures (%) ([1]; Conc 10^-9 M): 100%
- Reversal of Keratinization, Active/Total Cultures ([1]; Conc 10^-10 M): 18/25
- Reversal of Keratinization, Active/Total Cultures (%) ([1]; Conc 10^-10 M): 72%
- Reversal of Keratinization, Active/Total Cultures ([1]; Conc 10^-11 M): 5/11
- Reversal of Keratinization, Active/Total Cultures (%) ([1]; Conc 10^-11 M): 45%
- Inhibition of Induction of Ornithine Decarboxylase by TPA, % Inhibition of Control ([2]; Dose 1.7 nmol): 35%
- Inhibition of Induction of Ornithine Decarboxylase by TPA, % Inhibition of Control ([2]; Dose 17 nmol): 43%
